Results on 15 compounds are retold here after PubChem BioAssay (NCI).

Test systems include EKVX NSCLC; DU-145 prostate; HOP-92 NSCLC; SF-539 CNS; OVCAR-3 ovarian; RPMI-8226 leukemia; LOX IMVI melanoma; MDA-MB-435; NCI-H226 lung; OVCAR-8 ovarian.
Holding throughout (experiment): inhibition of tumour cell growth, NCI panel, 48 h

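Test compounds were applied to cells in 96-well plates for 48 hours at 5 doses. GI50 is the concentration that inhibits growth by half. TGI denotes the concentration required for complete inhibition of growth.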

As to `C[C@H]1S[C@H](c2c(Cl)cccc2Cl)N2Cc3ccccc3N=C12`, the TGI was 23.4 µM in the experiment with EKVX NSCLC; 27.5 µM with DU-145 prostate; more than 100 µM with HOP-92 NSCLC; 38.1 µM in the experiment with SF-539 CNS; 26.9 µM with OVCAR-3 ovarian; more than 100 µM in the experiment on RPMI-8226 leukemia. The TGI with LOX IMVI melanoma is 32.6 µM; in the experiment on MDA-MB-435 it was more than 100 µM.

`O=C(CCc1ccccc1)ON1C(=S)C(c2ccccc2)(c2ccccc2)N=C1Sc1ccccc1`: the TGI with EKVX NSCLC is more than 100 µM; in the experiment with DU-145 prostate, more than 100 µM; with HOP-92 NSCLC, more than 100 µM; with SF-539 CNS, more than 100 µM; with OVCAR-3 ovarian, more than 100 µM; with RPMI-8226 leukemia it was 74.6 µM. Besides, the TGI is more than 100 µM in the experiment with NCI-H226 lung, more than 100 µM with OVCAR-8 ovarian and 42.4 µM in the experiment on LOX IMVI melanoma.

Take `CC1C(c2ccc(Cl)cc2)c2cc3c(cc2OC1N1CCOCC1)OCO3` (configuration not stated): the TGI with EKVX NSCLC, in the experiment with DU-145 prostate, in the experiment with SF-539 CNS, in the experiment with OVCAR-3 ovarian, in the experiment with RPMI-8226 leukemia and in the experiment with OVCAR-8 ovarian was more than 100 µM in each case. In addition, the TGI in the experiment with LOX IMVI melanoma and in the experiment with MDA-MB-435 was more than 100 µM in each case.

Regarding `CC(=O)[CH-]C(=O)c1ccccc1.CC(=O)[CH-]C(=O)c1ccccc1.C[C@]12CCC(=O)C=C1CC[C@@H]1C2CC[C@@]2(C)C1CC[C@]2(C)[O-].C[C@]12CCC(=O)C=C1CC[C@@H]1C2CC[C@@]2(C)C1CC[C@]2(C)[O-].Cl.[Ti+4]` (some centres not stated), the GI50 is 17.3 µM in the experiment with EKVX NSCLC; 13.9 µM in the experiment with SF-539 CNS; 27.9 µM in the experiment with OVCAR-3 ovarian; 15.4 µM in the experiment on RPMI-8226 leukemia; 14.4 µM in the experiment on NCI-H226 lung; 20.4 µM with OVCAR-8 ovarian. Besides, the GI50 in the experiment with LOX IMVI melanoma was 18.6 µM. Moreover, the TGI with EKVX NSCLC is 44.7 µM; in the experiment with SF-539 CNS, 29.3 µM; in the experiment with OVCAR-3 ovarian, more than 100 µM; with RPMI-8226 leukemia, more than 100 µM; in the experiment with NCI-H226 lung, 56.1 µM; in the experiment on OVCAR-8 ovarian, 77.5 µM. Moreover, the TGI in the experiment on LOX IMVI melanoma stood at 48.8 µM.

Consider `CCCC(CCN)(CCN)[N+](=O)[O-]`, for which the TGI with EKVX NSCLC, in the experiment on DU-145 prostate, in the experiment on SF-539 CNS, in the experiment with RPMI-8226 leukemia, with NCI-H226 lung and with OVCAR-8 ovarian was more than 100 µM throughout. The same compound came in with a TGI in the experiment on MDA-MB-435 of more than 100 µM.

For `Cc1cc(=O)[nH]c(NN2C(Cl)C(=O)C2c2cccc(Cl)c2)n1` (configuration not stated), the TGI is more than 100 µM in the experiment on EKVX NSCLC; 41.5 µM in the experiment with HOP-92 NSCLC; 39.4 µM in the experiment on SF-539 CNS; 51.1 µM in the experiment on OVCAR-3 ovarian; 34.8 µM in the experiment on RPMI-8226 leukemia; more than 100 µM in the experiment on OVCAR-8 ovarian. Also, in the experiment on LOX IMVI melanoma, the TGI was 32.8 µM.

As to `CCOC(=O)C1=COC(C)(CCc2ccccc2)CC1=O` (configuration not stated), the TGI with EKVX NSCLC, in the experiment on DU-145 prostate, in the experiment with SF-539 CNS, with OVCAR-3 ovarian, in the experiment on RPMI-8226 leukemia and in the experiment with OVCAR-8 ovarian was more than 100 µM each time. Moreover, the TGI in the experiment on MDA-MB-435 was more than 100 µM.

Consider `COc1ccc(C(OCC2OC(n3ccc(NC(=O)c4ccccc4)nc3=O)CC2OP2(=S)SCCS2)(c2ccccc2)c2ccc(OC)cc2)cc1` (configuration not stated), for which the TGI in the experiment with EKVX NSCLC was more than 100 µM; with DU-145 prostate, more than 100 µM; in the experiment with OVCAR-3 ovarian, 58.5 µM; with RPMI-8226 leukemia it was more than 100 µM; with NCI-H226 lung it was 67.4 µM; in the experiment on OVCAR-8 ovarian it was 63.2 µM. In addition, the TGI in the experiment on LOX IMVI melanoma is 33.1 µM; in the experiment on MDA-MB-435, more than 100 µM.

As to `CC(C)(C)OC(=O)NCCCCC(NC(=O)c1ccccc1)C(N)=O` (configuration not stated), the TGI in the experiment with EKVX NSCLC, in the experiment with DU-145 prostate, in the experiment on SF-539 CNS, in the experiment on OVCAR-3 ovarian, in the experiment with RPMI-8226 leukemia and in the experiment with OVCAR-8 ovarian was more than 100 µM throughout. For the same compound, the TGI with LOX IMVI melanoma and in the experiment on MDA-MB-435 was more than 100 µM each time.

Take `C[C@@H]1S[C@H](c2c(Cl)cccc2Cl)N2Cc3ccccc3N=C12`: the TGI in the experiment on EKVX NSCLC, in the experiment on DU-145 prostate, in the experiment with HOP-92 NSCLC, in the experiment on SF-539 CNS, in the experiment with OVCAR-3 ovarian and in the experiment on RPMI-8226 leukemia was more than 100 µM in each case. In addition, the TGI in the experiment on LOX IMVI melanoma and in the experiment with MDA-MB-435 was more than 100 µM throughout.

For `NC(Cc1ccc(S(=O)(=O)O)cc1)C(=O)NC(Cc1ccc(S(=O)(=O)O)cc1)C(=O)O` (configuration not stated), the TGI in the experiment with EKVX NSCLC, in the experiment with DU-145 prostate, in the experiment on SF-539 CNS, in the experiment on OVCAR-3 ovarian, with RPMI-8226 leukemia and in the experiment on NCI-H226 lung was more than 100 µM each time. The TGI with OVCAR-8 ovarian, in the experiment with LOX IMVI melanoma and in the experiment with MDA-MB-435 was more than 100 µM throughout.

Take `N#C[C@H](c1nc2ccccc2s1)c1nc2ccccc2nc1Cl`: the TGI was more than 100 µM with EKVX NSCLC; 37.9 µM in the experiment with HOP-92 NSCLC; more than 100 µM with SF-539 CNS; 38.9 µM in the experiment with OVCAR-3 ovarian; more than 100 µM in the experiment on RPMI-8226 leukemia; more than 100 µM in the experiment with NCI-H226 lung. Besides, the TGI in the experiment with OVCAR-8 ovarian and in the experiment on MDA-MB-435 was more than 100 µM in each case.

As for `Cn1c(N/N=C/c2ccccc2)nc(-c2ccc([N+](=O)[O-])cc2)c(C#N)c1=O`, the TGI is more than 100 µM in the experiment with EKVX NSCLC; more than 100 µM in the experiment with DU-145 prostate; 80.6 µM in the experiment with HOP-92 NSCLC; more than 100 µM with SF-539 CNS; 44.9 µM in the experiment with OVCAR-3 ovarian; more than 100 µM in the experiment with RPMI-8226 leukemia. In addition, the TGI with OVCAR-8 ovarian, in the experiment with LOX IMVI melanoma and in the experiment on MDA-MB-435 was more than 100 µM throughout.

For `COc1ccc2oc(=O)c(-c3csc(C)n3)cc2c1`, the TGI is more than 100 µM with EKVX NSCLC; more than 100 µM in the experiment with DU-145 prostate; 41.2 µM with HOP-92 NSCLC; 57 µM in the experiment on SF-539 CNS; more than 100 µM with RPMI-8226 leukemia; 89.1 µM with NCI-H226 lung. In addition, the TGI in the experiment on LOX IMVI melanoma and with MDA-MB-435 was more than 100 µM throughout.

In the case of `Clc1ccc(OCc2nn3c(CCc4nnc5sc(COc6ccc(Cl)cc6)nn45)nnc3s2)cc1`, the TGI with EKVX NSCLC is more than 100 µM; in the experiment with DU-145 prostate it was 44.2 µM; with SF-539 CNS, more than 100 µM; with OVCAR-3 ovarian, 65.8 µM; in the experiment with RPMI-8226 leukemia, more than 100 µM; with NCI-H226 lung, more than 100 µM. Also, the values for the TGI in the experiment on OVCAR-8 ovarian, with LOX IMVI melanoma and in the experiment on MDA-MB-435 were 35.8 µM, more than 100 µM and more than 100 µM, respectively.
